Laboratory results as given in patent US6355799B1, “Substituted benzene compounds, process for their preparation, and herbicidal and defoliant compositions containing them” (ISK Americas Incorporated, priority 1997, dated 2002).

What was measured:
Type in all cases: in vivo
[1] = system: field corn (Zea mays L., var. Dekalb 535, CORN); assay: Pre-emerge test, crop safety; conditions: crop damage, pre-emerge, phytotoxicity rating 0-100 at 14 days after application
How it was run: (§1)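 Applied at 15–1000 g ai/ha from acetone in 187 l/ha spray volume. Post-emergence applications included 0.25% v/v non-ionic surfactant and reached plants sown 8–21 days before. Pre-emergence applications were incorporated by surface watering. Efficacy or crop damage was rated on a 0–100 scale after 14 days.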

[2] = system: upland rice (Oryza sp., var. Tebonnet, RICE); assay: Pre-emerge test, crop safety; conditions: crop damage, pre-emerge, phytotoxicity rating 0-100 at 14 days after application
How it was run: as §1

[3] = system: redroot pigweed (Amaranthus retroflexus, AMARE); assay: Pre-emerge test, greenhouse herbicide activity screening; conditions: pre-emerge, phytotoxicity rating 0-100 at 14 days after application
How it was run: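 Compounds in acetone were track-sprayed at 187 l/ha, 15–1000 g ai/ha, onto sandy loam pots. Pre-emerge seeds were sown one day before spraying, with surface watering afterwards. Post-emerge plants were at the 2–3 leaf stage and sprayed with 0.25% v/v non-ionic surfactant. Injury was rated 0–100 at 14 days.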

[4] = system: johnsongrass (Sorghum halepense, SORHA); assay: as above; conditions: pre-emerge, phytotoxicity rating 0-100 at 14 days after application
How it was run: as §1

[5] = system: barnyardgrass (Echinochloa crus-galli, ECHCG); assay: as above; conditions: pre-emerge, phytotoxicity rating 0-100 at 14 days after application
How it was run: as §1

[6] = system: velvetleaf (Abutilon theophrasti, ABUTH); assay: as above; conditions: pre-emerge, phytotoxicity rating 0-100 at 14 days after application
How it was run: as §1

[7] = system: sicklepod (Cassia obtusifolia, CASOB); assay: as above; conditions: pre-emerge, phytotoxicity rating 0-100 at 14 days after application
How it was run: as §1

[8] = system: large crabgrass (Digitaria sanguinalis, DIGSA); assay: as above; conditions: pre-emerge, phytotoxicity rating 0-100 at 14 days after application
How it was run: as §1

[9] = system: lambsquarters (Chenopodium album, CHEAL); assay: as above; conditions: pre-emerge, phytotoxicity rating 0-100 at 14 days after application
How it was run: as §1

[10] = system: green foxtail (Setaria viridis, SETVI); assay: as above; conditions: pre-emerge, phytotoxicity rating 0-100 at 14 days after application
How it was run: as §1

[11] = system: ivyleaf morningglory (Ipomoea hederacea, IPOHE); assay: as above; conditions: pre-emerge, phytotoxicity rating 0-100 at 14 days after application
How it was run: as §1

Row | SMILES | Pre-emerge Herbicidal Activity CORN ([1]; rate 63 g ai/ha) | Pre-emerge Herbicidal Activity CORN ([1]; rate 250 g ai/ha) | Pre-emerge Herbicidal Activity RICE ([2]; rate 63 g ai/ha) | Pre-emerge Herbicidal Activity RICE ([2]; rate 250 g ai/ha) | Pre-emerge Herbicidal Activity AMARE ([3]; rate 63 g ai/ha) | Pre-emerge Herbicidal Activity AMARE ([3]; rate 250 g ai/ha) | Pre-emerge Herbicidal Activity SORHA ([4]; rate 63 g ai/ha) | Pre-emerge Herbicidal Activity SORHA ([4]; rate 250 g ai/ha) | Pre-emerge Herbicidal Activity ECHCG ([5]; rate 63 g ai/ha) | Pre-emerge Herbicidal Activity ECHCG ([5]; rate 250 g ai/ha) | Pre-emerge Herbicidal Activity ABUTH ([6]; rate 63 g ai/ha) | Pre-emerge Herbicidal Activity ABUTH ([6]; rate 250 g ai/ha) | Pre-emerge Herbicidal Activity CASOB ([7]; rate 63 g ai/ha) | Pre-emerge Herbicidal Activity CASOB ([7]; rate 250 g ai/ha) | Pre-emerge Herbicidal Activity DIGSA ([8]; rate 63 g ai/ha) | Pre-emerge Herbicidal Activity DIGSA ([8]; rate 250 g ai/ha) | Pre-emerge Herbicidal Activity CHEAL ([9]; rate 63 g ai/ha) | Pre-emerge Herbicidal Activity CHEAL ([9]; rate 250 g ai/ha) | Pre-emerge Herbicidal Activity SETVI ([10]; rate 63 g ai/ha) | Pre-emerge Herbicidal Activity SETVI ([10]; rate 250 g ai/ha) | also measured
1 | COc1c(Cl)cc(F)c(-n2c(=O)n3n(c2=O)CCCC3)c1N [9-4] | 0 | 0 | 0 | 10 | 60 | 100 | 0 | 30 | 0 | 10 | 90 | 100 | 30 | 60 | 0 | 60 | 30 | 80 | 0 | 70 | Pre-emerge Herbicidal Activity IPOHE ([11]; rate 63 g ai/ha): 10; Pre-emerge Herbicidal Activity IPOHE ([11]; rate 250 g ai/ha): 50
2 | COc1c(Cl)cc(F)c(-n2c(=O)n3n(c2=O)CCCC3)c1NC(C)=O [9-5] | 0 | 10 | 25 | 60 | 100 | 100 | 0 | 20 | 0 | 30 | 100 | 100 | 10 | 80 | 10 | 40 | 100 | 100 | 20 | 60 | Pre-emerge Herbicidal Activity IPOHE ([11]; rate 63 g ai/ha): 70; Pre-emerge Herbicidal Activity IPOHE ([11]; rate 250 g ai/ha): 100
